Source: JP2019019068A, “アリールアゾール化合物および有害生物防除剤” (Nippon Soda Co Ltd, priority 2017, dated 2019)

Legend:
[1] = test system: diamondback moth (コナガ) 2nd instar larvae; experiment: Test Example 1: efficacy test against diamondback moth (コナガ), cabbage leaf dip; assay type: in vivo; conditions: Plutella xylostella, foliar, 72 h, cabbage leaf dipped 30 s, 25 °C, 60% humidity, 3 days after release, 2 replicates, read-out: insecticidal rate
[2] = test system: striped flea beetle (キスジノミハムシ) adults; experiment: Test Example 2: efficacy test against striped flea beetle (キスジノミハムシ), spray on bok choy seedlings; assay type: in vivo; conditions: Phyllotreta striolata, 168 h, sprayed on bok choy seedlings, 25 °C, 65% humidity, 7 days after release, 2 replicates, read-out: insecticidal rate

Structure (SMILES): CCS(=O)(=O)c1cc(/C=N/OCC(F)(F)F)cnc1-c1ncc(C=C(Cl)C(F)(F)F)n1C [化合物番号1, (E)-6-(5-(2-chloro-3,3,3-trifluoroprop-1-en-1-yl)-1-methyl-1H-imidazol-2-yl)-5-(ethylsulfonyl)nicotinaldehyde O-(2,2,2-trifluoroethyl) oxime]
- mortality at 125 ppm [1]: ≥ 80%
- mortality at 125 ppm [2]: ≥ 80%
